Test results reported in patent publication US6737247B2, “Imaging of enzymatic activity” (The General Hospital Corporation, priority 2000, dated 2004).

Columns and labels:
[1] = system: peroxidase; test: H1 NMR relaxometry / relaxivity enhancement after peroxidase treatment; assay type: biochemical; details: equimolar amount added to the peroxidase reaction
[2] = system: peroxidase; test: Kinetics of peroxidase-mediated oxidation in excess hydrogen peroxide, spectrophotometry at 400 nm; assay type: biochemical; details: absorbance at 400 nm
Description: Substrates I and II at concentrations of 10-50 μM were treated by peroxidase (0.1-100 nM) and an excess of hydrogen peroxide (3.5 mM) in 10 mM phosphate-buffered saline (PBS) or 0.05 M sodium phosphate pH 6.8. In some experiments, a peroxide-generating system (5 mM glucose, glucose oxidase and lactoperoxidase) was used. In inhibition studies, 2 mM Gd-free substrate, tyramine, dopamine, or methyldopamine were added as competitive inhibitors. The reaction was monitored by spectrophotometry at 400 nm and by NMR spectrometry (Minispec 120 Bruker). Magnetic resonance imaging was performed using a 1.5 T Signa GE system and surface or knee coils. Inversion-recovery pulse sequences (TE 11 ms/TR 1000 ms/TI 50-600 ms) were used for T1 measurements. Spin-echo sequence (TE 13 ms/TR 400 ms/2 NEX, Matrix 256×160) was optimal for magnetic resonance imaging of signal amplification. Magnetic resonance signal intensity was measured using region-of-interest approach and 16-bit TIFF images. […]
Kinetics of oxidation of tyraminyl-DOTA(Gd), I, or hydroxytyraminyl-DOTA(Gd), II, in the presence of the excess of hydrogen peroxide was studied using spectrophotometry. The increase in absorbance at 400 nm in the case of both gadolinium-labeled substrates was rapid, indicating efficient oxidation of both substrates, and gave similar pseudo-first order kinetic constants: k1app=0.0125 s^−1 (I) and 0.013 s^−1 (II).

[3] = system: peroxidase; test: H1 NMR relaxometry / relaxivity enhancement after peroxidase treatment; assay type: biochemical; details: for r1, peroxidase: after peroxidase; for r1, control: no peroxidase
Description: Substrates I and II at concentrations of 10-50 μM were treated by peroxidase (0.1-100 nM) and an excess of hydrogen peroxide (3.5 mM) in 10 mM phosphate-buffered saline (PBS) or 0.05 M sodium phosphate pH 6.8. In some experiments, a peroxide-generating system (5 mM glucose, glucose oxidase and lactoperoxidase) was used. In inhibition studies, 2 mM Gd-free substrate, tyramine, dopamine, or methyldopamine were added as competitive inhibitors. The reaction was monitored by spectrophotometry at 400 nm and by NMR spectrometry (Minispec 120 Bruker). Magnetic resonance imaging was performed using a 1.5 T Signa GE system and surface or knee coils. Inversion-recovery pulse sequences (TE 11 ms/TR 1000 ms/TI 50-600 ms) were used for T1 measurements. […] Magnetic resonance signal intensity was measured using region-of-interest approach and 16-bit TIFF images. Mean pixel values were compared using a Student t-test.

[4] = Chelex-100 resin treatment to test dissociation of gadolinium from the DOTA(Gd) complex; assay type: physicochemical; details: compared to control with no peroxidase added
From the text: By plotting relaxation data against the concentration of gadolinium, a raise of 1/T1 and I/T2 of 2 fold (at 0.47 T) and 2.7 fold (1.5 T) in the case of substrate I, and 3.5 (at 0.47 T) in the case of substrate II has been measured (Table 1). […] To find out whether the increase in relaxivity is a result of dissociation of gadolinium cation from a DOTA(Gd) complex, we treated Tyr-DOTA(Gd) or Dopamine-DOTA(Gd) with Chelex-100 resin and compared it to the control with no peroxidase added. No difference in T1 relaxation time of substrate solutions before and after the treatment was observed.

[5] = system: digoxigenin-labeled Fab2' fragment of monoclonal antibody; test: MRAMP ELISA-like assay with adsorbed DIG-labeled Fab2' fragment and anti-digoxigenin-peroxidase conjugate; details: 0.4 mM substrate, 3.5 mM hydrogen peroxide, 96-well plate
Description: Fab2′ fragment of H18/7 monoclonal anti-human E selectin antibody was prepared using pepsin digestion, and then purified. Labeling of Fab2′-fragment with digoxigenin (DIG) hydroxysuccinimide ester (HSE) (Roche Molecular Diagnostics) was carried out according to the vendor's instructions. One ng to 1000 ng of DIG-labeled antibody was serially diluted with 0.01 M sodium carbonate (pH 9) in a 96-well plate (Nunc) and adsorbed at 37° C. overnight. Wells were washed with PBS containing 0.1% Tween 20 (PBST) blocked with BSA solution, and anti-DIG antibody-peroxidase conjugate (Roche, diluted 1:1000) was incubated in wells in PBS-B for 1 hour. Washed wells were filled with 200 μl of 0.4 mM substrate I or II and hydrogen peroxide (3.5 mM) and incubated for 30 min before imaging. Cells (2 million/sample) were treated sequentially with IL-1β, anti-E selectin DIG-labeled Fab2′-fragment, and anti-DIG antibody-peroxidase. Cell suspensions were prepared in PBS and substrates were used as above. Cells were pelleted in Eppendorf tubes (0.5 ml), and then imaged as described above. […] Magnetic resonance signal intensity was quantified as described above and compared to that of aqueous Gd solutions.
In the next series of experiments, we determined whether MRAMP could be utilized to detect a model ligand in an ELISA-like assay. […]

| Compound | influence of added equimolar competitor on gadolinium relaxivity [1] | pseudo-first order kinetic constant k1app [2] [s⁻¹] | raise of 1/T1 and 1/T2 after addition of the enzyme ([3]; 0.47 T) [fold] | r1, peroxidase ([3]; 0.47 T (20 MHz)) [mM⁻¹ s⁻¹] | r1, control ([3]; 0.47 T (20 MHz)) [mM⁻¹ s⁻¹] | r1, peroxidase ([3]; 1.5 T (63 MHz)) [mM⁻¹ s⁻¹] | r1, control ([3]; 1.5 T (63 MHz)) [mM⁻¹ s⁻¹] | difference in T1 relaxation time of substrate solutions before and after Chelex-100 treatment [4] | further results |
| --- | --- | --- | --- | --- | --- | --- | --- | --- | --- |
| methyl-dopamine | did not influence gadolinium relaxivity |  |  |  |  |  |  |  |  |
| hydroxytyraminyl-DOTA(Gd) [Substrate II] |  | 0.013 | 3.5 | 11.50 | 3.75 | 14.1 | 5.2 | No difference | antibody fragment detected at threshold (sensitivity of MRAMP assay) [5]: 1 ng |
| NCCc1ccc(O)cc1 [tyramine] | did not influence gadolinium relaxivity |  |  |  |  |  |  |  |  |
| tyramine-[1,4,7,10-tetraazacyclododecane-N,N′,N″,N′″-tetraacetic acid, gadolinium salt] [Substrate I] |  | 0.0125 | 2 | 7.10 | 3.30 | 10.1 | 4.5 | No difference | raise of 1/T1 and 1/T2 after addition of the enzyme ([3]; 1.5 T): 2.7 fold |
| NCCc1ccc(O)c(O)c1 [dopamine] | did not influence gadolinium relaxivity |  |  |  |  |  |  |  |  |
| N[C@@H](Cc1ccc(O)cc1)C(=O)O [tyrosine] | did not influence gadolinium relaxivity |  |  |  |  |  |  |  |  |
